In patent US10561318B2, “Device, system and method for quantifying fluorescence and optical properties” (University Health Network, priority 2010, dated 2020):

Parameters: species or system patients
Protocol: Another example study is now described. In this example study, 14 patients with a variety of intracranial pathologies (including low- and high-grade gliomas, meningioma, and intracranial lung metastases, as indicated in FIG. 17) were administered 20-mg/kg of ALA 3 hours prior to induction of anesthesia. The neurosurgeon performed a conventional standard craniotomy procedure with image-guidance using a surgical microscope modified for PpIX fluorescence. At the surgical bed, the surgeon acquired multiple sets of measurements using an example probe, with corresponding tissue specimens collected and processed for histopathological analysis. […] In addition, the surgeon scored the visible fluorescence as viewed through the fluorescence-capable surgical microscope (scores from 0-4). All specimens were assessed as either normal or abnormal, such that presence of tumor cells was assessed as abnormal.
Receiver-Operator Characteristic Analysis: The receiver-operator characteristic (ROC) curves were generated using the PpIX concentrations as the parameter comparing normal tissue to these tumor populations: all tumors, all gliomas, low-grade gliomas (LGGs), high-grade gliomas (HGGs), meningiomas and metastases. […] The uncorrected fluorescence metric was the magnitude of the PpIX fluorescence peak from the raw fluorescence spectrum, i.e. Fx,m at 635 nm (see Eqs. 1 and 4). […]

tumor-to-normal (T/N) ratio of in vivo PpIX concentration (human): 200
SMILES: C=CC1=C(C)c2cc3[nH]c(cc4nc(cc5[nH]c(cc1n2)c(C)c5CCC(=O)O)C(CCC(=O)O)=C4C)c(C)c3C=C [PpIX, protoporphyrin IX]
PpIX in abnormal tissue compared to normal tissue (in vivo): approximately at least five times more PpIX
